Measured values published in publication PMC6271077, “Synthesis, Anticancer and Antibacterial Activity of Salinomycin N-Benzyl Amides” (Molecules, 2014).
In brackets after ≈: the same amount, converted by molar mass. Read-outs that look alike come from different tables or passages of the source.

What was measured:
Assay type in all cases: cell-based
S. aureus ATCC 25923 = experiment: Disc-diffusion (GIZ); details: 18 h, 35 °C, un: unmeasurable
Excerpt: (§1) Microorganisms used in this study were as follows: Gram-positive cocci: S. aureus NCTC 4163, S. aureus ATCC 25923, S. aureus ATCC 6538, S. aureus ATCC 29213, S. epidermidis ATCC 12228, S. epidermidis ATCC 35984, Gram-negative rods: E. coli ATCC 10538, E. coli ATCC 25922, E. coli NCTC 8196, P. vulgaris NCTC 4635, P. aeruginosa ATCC 15442, P. aeruginosa NCTC 6749, P. aeruginosa ATCC 27863, B. bronchiseptica ATCC 4617 and yeasts: C. albicans ATCC 10231, C. albicans ATCC 90028, C. parapsilosis ATCC 22019. The other microorganisms used were obtained from the collection of the Department of Pharmaceutical Microbiology, Medical University of Warsaw, Poland.
(§2) Antibacterial activity was examined by the disc-diffusion method under standard conditions using Mueller-Hinton II agar medium (Becton Dickinson, Heidelberg, Germany) according to CLSI (previously NCCLS) guidelines. Antifungal activities were assessed using Muellere Hinton agar + 2% glucose and 0.5 mg/mL Methylene Blue Dye Medium.
(§3) Sterile filter paper discs (9 mm diameter, Whatman No. 3 chromatography paper) were dripped with tested compound solutions (in EtOH) to load […] of a given compound per disc. Dry discs were placed on the surface of appropriate agar medium. The results (diameter of the growth inhibition zone, GIZ) were read after 18 h of incubation at 35 °C.

S. aureus ATCC 29213 [1] = experiment: Disc-diffusion (GIZ); details: 18 h, 35 °C, un: unmeasurable
Excerpt: as §1, §2, §3

S. aureus ATCC 4163 [2] = experiment: Disc-diffusion (GIZ); details: 18 h, 35 °C, un: unmeasurable
Excerpt: as §1, §2, §3

S. aureus ATCC 6538 [3] = experiment: Disc-diffusion (GIZ); details: 18 h, 35 °C, un: unmeasurable
Excerpt: as §1, §2, §3

[4] = test system: S. epidermidis ATCC 12228; experiment: Disc-diffusion (GIZ); details: 18 h, 35 °C, un: unmeasurable
Excerpt: as §1, §2, §3

[5] = test system: S. epidermidis ATCC 35984; experiment: Disc-diffusion (GIZ); details: 18 h, 35 °C, un: unmeasurable
Excerpt: as §1, §2, §3

S. aureus ATCC 4163 [6] = experiment: MIC microdilution; details: Staphylococcus aureus
S. aureus ATCC 6538 [7] = experiment: MIC microdilution; details: Staphylococcus aureus
S. aureus ATCC 29213 [8] = experiment: MIC microdilution; details: Staphylococcus aureus
MRSA 452/11 = experiment: MIC microdilution, hospital MRSA; details: Staphylococcus aureus
MRSA 462/11 = experiment: MIC microdilution, hospital MRSA; details: Staphylococcus aureus
MRSA 537/12 = experiment: MIC microdilution, hospital MRSA; details: Staphylococcus aureus
MRSA 573/12 = experiment: MIC microdilution, hospital MRSA; details: Staphylococcus aureus
MRSE 460/11 = experiment: MIC microdilution, hospital MRSE; details: Staphylococcus epidermidis
MRSE 461/11 = experiment: MIC microdilution, hospital MRSE; details: Staphylococcus epidermidis
MRSE 466/11 = experiment: MIC microdilution, hospital MRSE; details: Staphylococcus epidermidis
MRSE 467/11 = experiment: MIC microdilution, hospital MRSE; details: Staphylococcus epidermidis
MRSE 488/11 = experiment: MIC microdilution, hospital MRSE; details: Staphylococcus epidermidis
[9] = test system: M. tuberculosis isoniazid-sensitive strain (spec. 192); experiment: Tuberculostatic activity, test-tube dilution; details: Mycobacterium tuberculosis, read-out: MIC M. tuberculosis Isoniazid-Sensitive Strain
[10] = test system: standard and "wild" strains of M. tuberculosis; experiment: Tuberculostatic activity, all M. tuberculosis strains (overall); details: Mycobacterium tuberculosis, H37RV, read-out: MIC (over M. tuberculosis strains)
[11] = ATCC4163, S. aureus ATCC 4163, 18 h, 35 °C, read-out: MIC
[12] = ATCC6538, S. aureus ATCC 6538, 18 h, 35 °C, read-out: MIC
[13] = ATCC29213, S. aureus ATCC 29213, 18 h, 35 °C, read-out: MIC
[14] = hospital MRSA strain 452/11, read-out: MIC
[15] = hospital MRSA strain 462/11, read-out: MIC
[16] = hospital MRSA strain 537/12, read-out: MIC
[17] = hospital MRSA strain 573/12, read-out: MIC
[18] = hospital MRSE strain 460/11, read-out: MIC
[19] = hospital MRSE strain 461/11, read-out: MIC
[20] = hospital MRSE strain 466/11, read-out: MIC
[21] = hospital MRSE strain 467/11, read-out: MIC
[22] = hospital MRSE strain 488/11, read-out: MIC

| Compound | GIZ (S. aureus ATCC 25923) | GIZ (S. aureus ATCC 29213 [1]) | GIZ (S. aureus ATCC 4163 [2]) | GIZ (S. aureus ATCC 6538 [3]) | GIZ [4] | GIZ [5] | MIC (S. aureus ATCC 4163 [6]; [11]) | MIC (S. aureus ATCC 6538 [7]; [12]) | MIC (S. aureus ATCC 29213 [8]; [13]) | MIC (MRSA 452/11; [14]) | MIC (MRSA 462/11; [15]) | MIC (MRSA 537/12; [16]) | MIC (MRSA 573/12; [17]) | MIC (MRSE 460/11; [18]) | MIC (MRSE 461/11; [19]) | MIC (MRSE 466/11; [20]) | MIC (MRSE 467/11; [21]) | MIC (MRSE 488/11; [22]) | MIC [9] | MIC [10] | further results |
| --- | --- | --- | --- | --- | --- | --- | --- | --- | --- | --- | --- | --- | --- | --- | --- | --- | --- | --- | --- | --- | --- |
| CC[C@H](C(=O)NCc1ccc(F)cc1)C1CC[C@H](C)C([C@@H](C)[C@H](O)[C@H](C)C(=O)[C@H](CC)C2O[C@]3(C=C[C@@H](O)C4(CC[C@@](C)(C5CC[C@](O)(CC)[C@H](C)O5)O4)O3)[C@H](C)C[C@@H]2C)O1 (stereo partly drawn) [F-p] | 19 mm | 20 mm | 18 mm | 19 mm | 20 mm | 18 mm | 32 µg/mL (≈ 37.3 µM) | 16 µg/mL (≈ 18.6 µM) | 32 µg/mL (≈ 37.3 µM) | 16 µg/mL (≈ 18.6 µM) | 32 µg/mL (≈ 37.3 µM) | 32 µg/mL (≈ 37.3 µM) | 64 µg/mL (≈ 74.6 µM) | 32 µg/mL (≈ 37.3 µM) | 32 µg/mL (≈ 37.3 µM) | 16 µg/mL (≈ 18.6 µM) | 64 µg/mL (≈ 74.6 µM) | 128 µg/mL (≈ 149 µM) | 50 µg/mL (≈ 58.3 µM) | 50 µg/mL (≈ 58.3 µM) | – |
| CC[C@H](C(=O)NCc1ccc([N+](=O)[O-])cc1)C1CC[C@H](C)C([C@@H](C)[C@H](O)[C@H](C)C(=O)[C@H](CC)C2O[C@]3(C=C[C@@H](O)C4(CC[C@@](C)(C5CC[C@](O)(CC)[C@H](C)O5)O4)O3)[C@H](C)C[C@@H]2C)O1 (stereo partly drawn) [NO2-p] | un | un | un | un | un | un | 128 µg/mL (≈ 145 µM) | 128 µg/mL (≈ 145 µM) | 128 µg/mL (≈ 145 µM) | 128 µg/mL (≈ 145 µM) | 128 µg/mL (≈ 145 µM) | 256 µg/mL (≈ 289 µM) | 256 µg/mL (≈ 289 µM) | 128 µg/mL (≈ 145 µM) | 256 µg/mL (≈ 289 µM) | 256 µg/mL (≈ 289 µM) | 128 µg/mL (≈ 145 µM) | 256 µg/mL (≈ 289 µM) | 50 µg/mL (≈ 56.5 µM) | 50 µg/mL (≈ 56.5 µM) | – |
| CC[C@@H](C(=O)[C@@H](C)[C@@H](O)[C@H](C)[C@@H]1O[C@@H]([C@@H](CC)C(=O)O)CC[C@@H]1C)[C@H]1O[C@]2(C=C[C@@H](O)[C@]3(CC[C@@](C)([C@H]4CC[C@](O)(CC)[C@H](C)O4)O3)O2)[C@H](C)C[C@@H]1C [SAL, Salinomycin] | 29 mm | 28 mm | 30 mm | 34 mm | 34 mm | 33 mm | – | – | – | – | – | – | – | – | – | – | – | – | 25 µg/mL (≈ 33.3 µM) | 25 to 50 µg/mL (≈ 33.3 to 66.6 µM) | MIC (S. aureus ATCC 4163 [6]; ATCC4163, 18 h): 2 µg/mL (≈ 2.66 µM); MIC (S. aureus ATCC 6538 [7]; ATCC6538, 18 h): 2 µg/mL (≈ 2.66 µM); MIC (S. aureus ATCC 29213 [8]; ATCC29213, 18 h): 4 µg/mL (≈ 5.33 µM); MIC (MRSA 452/11; MRSA): 16 µg/mL (≈ 21.3 µM); MIC (MRSA 462/11; MRSA): 16 µg/mL (≈ 21.3 µM); MIC (MRSA 537/12; MRSA): 16 µg/mL (≈ 21.3 µM); MIC (MRSA 573/12; MRSA): 16 µg/mL (≈ 21.3 µM); MIC (MRSE 460/11; MRSE): 16 µg/mL (≈ 21.3 µM); MIC (MRSE 461/11; MRSE): 16 µg/mL (≈ 21.3 µM); MIC (MRSE 466/11; MRSE): 8 µg/mL (≈ 10.7 µM); MIC (MRSE 467/11; MRSE): 16 µg/mL (≈ 21.3 µM); MIC (MRSE 488/11; MRSE): 16 µg/mL (≈ 21.3 µM) |
